16 molecules from patent US20100280024A1, “RENIN INHIBITORS” (priority 2007, published 2010) can be followed below.

Experiment [1] concerns the target T1, Renin (Homo sapiens, UniProt P00797).
T1 sequence (P00797 67-406): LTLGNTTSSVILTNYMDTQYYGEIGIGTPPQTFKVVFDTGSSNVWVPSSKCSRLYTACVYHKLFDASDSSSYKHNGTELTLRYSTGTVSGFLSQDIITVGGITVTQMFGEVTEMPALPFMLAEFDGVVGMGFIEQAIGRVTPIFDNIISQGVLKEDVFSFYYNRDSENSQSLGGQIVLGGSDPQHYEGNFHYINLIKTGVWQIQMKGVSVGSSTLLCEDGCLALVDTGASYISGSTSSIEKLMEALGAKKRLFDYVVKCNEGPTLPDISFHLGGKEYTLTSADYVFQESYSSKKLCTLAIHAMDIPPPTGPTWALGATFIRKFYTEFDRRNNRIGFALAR
The experiment is described as follows: In-vitro renin inhibition assay (modified Cayman renin inhibitor screening assay, fluorescence). It counts as biochemical. The arrangement: purchased Cayman 10006270. The conditions noted are these: 37° C., 30 mins; for inhibition at 0.1 µM: read-out: Renin inhibition (percent inhibition of renin activity) at 0.1 μM; for inhibition at 1 µM: read-out: Renin inhibition (percent inhibition of renin activity) at 1 μM. As to the method: In-Vitro Renin Inhibition Assay
The enzymatic in vitro assay was performed in 96 well polypropylene plate (Nunc), using a modified Renin inhibitor screening assay protocol (Cayman, cat no: 10006270). The reaction system comprised assay buffer containing 50 mM Tris-HCL, pH=8.0 & 100 mM sodium chloride, human recombinant renin (1:20 diluted with fixed activity), synthetic renin substrates (9.5 μM) and different concentrations of renin inhibitors in DMSO in a total reaction system of 100 μl. The entire incubation mixture were incubated at 37° C. for 30 mins and the fluorescence was read in kinetic mode using excitation wavelengths of 335-345 nm and emission wavelengths of 485-510 nm. Enzyme inhibition was determined by percent inhibition of renin activity.

Experiment [2] has as its target T1, Renin. The experiment is described as follows: Renin inhibition in human plasma (IC50). It counts as biochemical. Also on record: from tissue; host or cells: human plasma. From the text: Following table represents measured IC50 values of the selected compounds for its Renin inhibition in human plasma.

Structures can show the parent of a compound that is named as a salt.

In general, inhibition refers to the change of the read-out against control, counted positive when it falls. The term IC50 denotes the midpoint of a concentration-inhibition curve. Read a low IC50 as inhibition by little substance. In the case of `Cc1cc(Cl)c(OCCOc2ccc(CC(CN)C(=O)N3CCCCC3)cc2)c(Cl)c1` (stereo not drawn) [Example 12, 3-Amino-2-{4-[2-(2,6-dichloro-4-methyl-phenoxy)-ethoxy]-benzyl}-1-piperidin-1-yl-propan-1-one], the inhibition at 0.1 µM in experiment [1] (compound concentration 0.1 μM) was 77%. In addition, the inhibition at 1 µM in experiment [1] (compound concentration 1 μM) was determined as 90.7%. In experiment [2], this molecule showed an IC50 of 70.2 nM.

`Cc1cc(Cl)c(OCCOc2ccc(CC(CN)C(=O)N3CCCc4cc(C(F)(F)F)ccc43)cc2)c(Cl)c1.Cl` (stereo not drawn) [Example 15A, 3-Amino-2-{4-[2-(2,6-dichloro-4-methyl-phenoxy)-ethoxy]-benzyl}-1-(6-trifluoromethyl-3,4-dihydro-2H -quinolin-1-yl)-propan-1-one hydrochloride]: in experiment [1] (compound concentration 0.1 μM), the “Renin inhibition (percent inhibition of renin activity) at 0.1 μM” value amounted to 80.00. The “Renin inhibition (percent inhibition of renin activity) at 1 μM” value in experiment [1] (compound concentration 1 μM) stood at 88.0. This molecule gave an IC50 in experiment [2] of 7.85 nM.

Take `COCCCOc1ccc2c(c1)CCCN2C(=O)C(CN)Cc1ccc(OCCOc2c(Cl)cc(C)cc2Cl)cc1` (stereo not drawn) [Example 24, 3-Amino-2-{4-[2-(2,6-dichloro-4-methyl-phenoxy)-ethoxy]-benzyl}-1-[6-(3-methoxy-propoxy)-3,4-dihydro-2H-quinolin-1-yl]-propan-1-one]: the inhibition at 0.1 µM in experiment [1] (compound concentration 0.1 μM) was determined as 90.7%. In addition, in experiment [1] (compound concentration 1 μM), the inhibition at 1 µM was determined as 93.2%. Also, half-maximal inhibition in experiment [2] (IC50) was put at 25.4 nM.

In the case of `COCC1CCCN(C(=O)C(CN)Cc2ccc(OCCOc3c(Cl)cc(C)cc3Cl)cc2)C1` (stereo not drawn) [Example 26, 2-Aminomethyl-3-{4-[2-(2,6-dichloro-4-methyl-phenoxy)-ethoxy]-phenyl}-1-(3-methoxymethyl-piperidin-1-yl)-propan-1-one hydrochloride], the inhibition at 0.1 µM in experiment [1] (compound concentration 0.1 μM) was 92.8%. Further, the inhibition at 1 µM in experiment [1] (compound concentration 1 μM) amounted to 93.9%. The IC50 in experiment [2] came out at 27.8 nM.

With `Cc1cc(Cl)c(OCCOc2ccc(CC(CN)C(=O)N3CCCc4cc(OC(F)(F)F)ccc43)cc2)c(Cl)c1` (stereo not drawn) [Example 27, 3-Amino-2-{4-[2-(2,6-dichloro-4-methyl-phenoxy)-ethoxy]-benzyl}-1-(6-trifluoromethoxy-3,4-dihydro-2H-quinolin-1-yl)-propan-1-one hydrochloride], in experiment [1] (compound concentration 0.1 μM), the inhibition at 0.1 µM amounted to 100%. The inhibition at 1 µM in experiment [1] (compound concentration 1 μM) was 99.2%. This molecule displayed an IC50 in experiment [2] of 0.921 nM.

On to `NCC(Cc1ccc(OCCOc2c(Cl)cccc2Cl)cc1)C(=O)N1CCCc2cc(C(F)(F)F)ccc21` (stereo not drawn) [Example 31, 3-Amino-2-{4-[2-(2,6-dichloro-phenoxy)-ethoxy]-benzyl}-1-(6-trifluoromethyl-3,4-dihydro-2H-quinolin-1-yl)-propan-1-one hydrochloride], for which the inhibition at 0.1 µM in experiment [1] (compound concentration 0.1 μM) was 94.1%. For the same molecule, the inhibition at 1 µM in experiment [1] (compound concentration 1 μM) amounted to 102%. The same molecule had an IC50 in experiment [2] of 28.7 nM.

Turning to `NCC(Cc1ccc(OCCOc2c(Cl)cccc2Cl)cc1)C(=O)N1CCCc2cc(OC(F)(F)F)ccc21` (stereo not drawn) [Example 32, 3-Amino-2-{4-[2-(2,6-dichloro-phenoxy)-ethoxy]-benzyl}-1-(6-trifluoromethoxy-3,4-dihydro-2H-quinolin-1-yl)-propan-1-one hydrochloride], in experiment [1] (compound concentration 0.1 μM), the inhibition at 0.1 µM came out at 100%. This molecule displayed an IC50 in experiment [2] of 0.829 nM.

As for `NCC(Cc1ccc(OCCOc2ccc(Cl)cc2F)cc1)C(=O)N1CCCc2cc(C(F)(F)F)ccc21` (stereo not drawn) [Example 40, 3-Amino-2-{4-[2-(4-chloro-2-fluoro-phenoxy)-ethoxy]-benzyl}-1-(6-trifluoromethyl-3,4-dihydro-2H-quinolin-1-yl)-propan-1-one hydrochloride], in experiment [1] (compound concentration 0.1 μM), the inhibition at 0.1 µM stood at 38.9%.

For `Cc1cc(Cl)c(OCCOc2ccc(CC(CN)C(=O)N3CCCc4cc(C(F)(F)F)ccc43)cn2)c(Cl)c1` (stereo not drawn) [Example 41, 3-Amino-2-{6-[2-(2,6-dichloro-4-methyl-phenoxy)-ethoxy]-pyridin-3-ylmethyl}-1-(6-trifluoromethyl-3,4-dihydro-2H-quinolin-1-yl)-propan-1-one], the inhibition at 0.1 µM in experiment [1] (compound concentration 0.1 μM) amounted to 80.1%. For the same molecule, the inhibition at 1 µM in experiment [1] (compound concentration 1 μM) was found to be 98.6%.

With `Cc1cc(Cl)c(OCCOc2ccc(CC(CN)C(=O)N3CCCCC3)cn2)c(Cl)c1` (stereo not drawn) [Example 42, 2-Aminomethyl-3-{6-[2-(2,6-dichloro-4-methyl-phenoxy)-ethoxy]-pyridin-3-yl}-1-piperidin-1-yl-propan-1-one], in experiment [1] (compound concentration 0.1 μM), the inhibition at 0.1 µM is 71%. Further, in experiment [1] (compound concentration 1 μM), the inhibition at 1 µM was 82.5%.

Consider `Cc1cc(Cl)c(OCCOc2ccc(CC(CN)C(=O)N3CCCc4ccccc43)cn2)c(Cl)c1` (stereo not drawn) [Example 43, 2-Aminomethyl-3-{6-[2-(2,6-dichloro-4-methyl-phenoxy)-ethoxy]-pyridin-3-yl}-1-(3,4-dihydro-2H-quinolin-1-yl)-propan-1-one], for which the inhibition at 1 µM in experiment [1] (compound concentration 1 μM) amounted to 64.2%.

For `Cc1cc(Cl)c(OCCOc2ccc(CC(CN)C(=O)N3CCCc4cc(F)ccc43)cn2)c(Cl)c1` (stereo not drawn) [Example 44, 3-Amino-2-{6-[2-(2,6-dichloro-4-methyl-phenoxy)-ethoxy]-pyridin-3-ylmethyl}-1-(6-fluoro-3,4-dihydro-2H-quinolin-1-yl)-propan-1-one hydrochloride], the inhibition at 0.1 µM in experiment [1] (compound concentration 0.1 μM) is 63.1%. Also, the inhibition at 1 µM in experiment [1] (compound concentration 1 μM) stood at 96.3%.

Consider `Cc1cc(Cl)c(OCCCOc2ccc(CC(CN)C(=O)N3CCCc4ccccc43)cc2)c(Cl)c1` (stereo not drawn) [Example 45, 2-Aminomethyl-3-{4-[3-(2,6-dichloro-4-methyl-phenoxy)-propoxy]-phenyl}-1-(3,4-dihydro-2H-quinolin-1-yl)-propan-1-one], for which the inhibition at 0.1 µM in experiment [1] (compound concentration 0.1 μM) was 18.7%. Besides, in experiment [1] (compound concentration 1 μM), the inhibition at 1 µM is 97.1%.

On to `COc1ccccc1COCCCOc1ccc(CC(CN)C(=O)N2CCCc3cc(C(F)(F)F)ccc32)cc1` (stereo not drawn) [Example 47, 3-Amino-2-{4-[3-(2-methoxy-benzyloxy)-propoxy]-benzyl}-1-(6-trifluoromethyl-3,4-dihydro-2H-quinolin-1-yl)-propan-1-one], for which the inhibition at 0.1 µM in experiment [1] (compound concentration 0.1 μM) is 43.1%.

`COc1cc(CC(CN)C(=O)N2CCCc3ccccc32)ccc1OCCOc1c(Cl)cc(C)cc1Cl` (stereo not drawn) [Example 48, 3-Amino-2-{4-[2-(2,6-dichloro-4-methyl-phenoxy)-ethoxy]-3-methoxy-benzyl}-1-(3,4-dihydro-2H-quinolin-1-yl)-propan-1-one hydrochloride]: the inhibition at 1 µM in experiment [1] (compound concentration 1 μM) came out at 58.5%.

Turning to `CC(C)(C)c1ccc2c(c1)CCCN2C(=O)C(CN)Cc1ccc(OCCOc2c(Cl)cccc2Cl)cc1` (stereo not drawn) [Example 53, 3-Amino-1-(6-tert-butyl-3,4-dihydro-2H-quinolin-1-yl)-2-{4-[2-(2,6-dichloro-phenoxy)-ethoxy]-benzyl}-propan-1-one hydrochloride], the inhibition at 0.1 µM in experiment [1] (compound concentration 0.1 μM) stood at 93.1%.
